Laboratory results taken from US8426394B2, “Progesterone antagonists such as CDB-4124 in the treatment of endometriosis, uterine fibroids, dysmenorrhea, breast cancer, etc” (Repros Therapeutics Inc., priority 2008, dated 2013).

Key:
[1] = test system: progesterone-induced endometrial proliferation in the rabbit uterus; assay: anti-McGinty and anti-Clauberg assays (biological activity in the rabbit uterus); format: in vivo; settings: in comparison to RU 486 and CDB-2914
Description: Also given in Table 1 are the relative biological activities of the same compounds in the rabbit uterus by the anti-McGinty and anti-Clauberg assays. Compound CDB-2914 (listed at the end of the Table) was used as the control or reference compound (rabbit Biological Activity=1.00) for these experiments because results of experiments using CDB-2914 have been published before (Hild-Petito et al., 1996; Passaro et al., 1997; Reel et al., 1998; Lamer et al., 2000). For the anti-McGinty test, immature female rabbits received a subcutaneous injection of 5 μg estradiol in 10% ethanol/sesame oil daily for 6 consecutive days. On day 7, animals underwent sterile abdominal surgery to ligate a 3-4 cm segment of both uterine horns. The test compound in appropriate solvent was injected intraluminally into the ligated segment of one uterine horn and vehicle alone into the other. […] Five micron sections stained with hematoxylin and cosin were evaluated microscopically for the degree of endometrial glandular proliferation. The percent inhibition of endometrial proliferation for each rabbit was calculated and the mean of the group of five animals recorded. […] Five micron sections stained with hematoxylin and eosin were evaluated microscopically for the degree of endometrial glandular proliferation. […]

opiate μ receptor (MOP) = opiate μ receptor (MOP) (Homo sapiens, UniProt P35372); assay: Affinity for and inhibition of opiate μ receptor; format: binding
opiate μ receptor (MOP), sequence (P35372 whole entry): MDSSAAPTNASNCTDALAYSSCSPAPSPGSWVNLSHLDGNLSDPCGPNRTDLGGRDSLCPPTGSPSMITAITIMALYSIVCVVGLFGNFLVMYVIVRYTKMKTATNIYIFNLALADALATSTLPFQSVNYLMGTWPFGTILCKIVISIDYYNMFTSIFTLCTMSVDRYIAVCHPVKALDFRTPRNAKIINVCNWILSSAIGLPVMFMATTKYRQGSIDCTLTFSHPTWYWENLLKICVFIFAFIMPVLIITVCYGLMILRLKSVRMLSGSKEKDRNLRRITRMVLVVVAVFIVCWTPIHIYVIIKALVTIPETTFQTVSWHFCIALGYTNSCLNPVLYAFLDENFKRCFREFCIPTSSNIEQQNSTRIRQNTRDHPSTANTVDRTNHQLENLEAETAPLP

[2] = test system: females suffering from endometriosis; assay: Example 12: 12.5 mg CDB-4124 beginning at day 5 versus day 15 of the menstrual cycle; format: in vivo, human; settings: 12.5 mg for a six-month period
Protocol: Females suffering from endometriosis are divided into two groups: a first group receives 12.5 mg of CDB-4124 for a six-month period beginning at day 5 of each female's menstrual cycle; a second group receives 12.5 mg of CDB-4124 for a six-month period beginning at day 15 of each female's menstrual cycle. Endometrial thickness is monitored regularly throughout the six-month period.

[3] = Serum corticosterone in rats; settings: progesterone, CDB-4124 and RU-486 groups compared
[4] = test system: pre-menopausal adult women diagnosed with endometriosis; assay: Six month study of Proellex (CDB-4124) in the treatment of endometriosis; format: in vivo, human; settings: for change in endometrial thickness from baseline (ultrasound): statistically insignificant
[5] = target: T1, glucocorticoid receptor (rbGR) (Oryctolagus cuniculus, UniProt P59667); assay: Glucocorticoid receptor binding / anti-glucocorticoid receptor activity; set-up: species or system rabbit
T1 construct: cytosol containing PR or GR were prepared in TEGMD buffer; from tissue; host or cells: thymus of estradiol-primed immature rabbits (cytosol)
T1 sequence (P59667 1-772): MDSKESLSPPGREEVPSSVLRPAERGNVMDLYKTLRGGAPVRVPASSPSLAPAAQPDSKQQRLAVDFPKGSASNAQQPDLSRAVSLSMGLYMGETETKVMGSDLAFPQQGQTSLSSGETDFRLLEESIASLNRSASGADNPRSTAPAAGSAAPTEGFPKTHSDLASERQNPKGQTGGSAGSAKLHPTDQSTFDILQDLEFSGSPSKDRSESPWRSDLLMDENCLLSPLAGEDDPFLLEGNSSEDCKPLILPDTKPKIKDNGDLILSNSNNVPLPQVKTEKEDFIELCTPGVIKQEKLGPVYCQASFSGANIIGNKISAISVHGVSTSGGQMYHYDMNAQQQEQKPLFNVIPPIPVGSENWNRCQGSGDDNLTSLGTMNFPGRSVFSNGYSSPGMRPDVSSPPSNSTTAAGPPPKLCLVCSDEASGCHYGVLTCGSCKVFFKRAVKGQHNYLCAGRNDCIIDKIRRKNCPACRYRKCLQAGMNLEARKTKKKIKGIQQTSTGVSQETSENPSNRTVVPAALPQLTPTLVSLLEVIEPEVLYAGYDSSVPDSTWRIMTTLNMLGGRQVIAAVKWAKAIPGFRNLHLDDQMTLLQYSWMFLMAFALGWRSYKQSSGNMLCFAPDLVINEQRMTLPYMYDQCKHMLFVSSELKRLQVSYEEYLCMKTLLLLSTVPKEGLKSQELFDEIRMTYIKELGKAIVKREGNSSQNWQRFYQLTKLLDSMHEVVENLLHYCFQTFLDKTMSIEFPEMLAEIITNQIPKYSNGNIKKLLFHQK
Protocol: Certain antiprogestins were tested in receptor-binding assays for their ability to bind rabbit progesterone receptor (rbPR) and glucocorticoid receptor (rbGR). […] For PR binding, the cytosol was incubated with 6 nM 1,2-[^3H]progesterone (50.0 Ci/mmole) and competitors were added at concentrations from 2 to 100 nM. For binding to GR, the cytosol was incubated with 6 nM 6,7-[^3H]-dexamethasone (40 Ci/mmol) and test compounds were added at concentrations from 20 to 100 nM. After overnight incubation at 4 C, bound and unbound [^3H] steroids were separated by addition of dextran-coated charcoal and centrifugation at 2100×g for 15 min at 4 C. Supernatants containing the [3H]-steroid receptor complexes were decanted into vials containing 4 ml Optifluor (Packard Instrument Co.), vortexed, equilibrated in a liquid scintillation counter for 30 minutes and then counted for 2 minutes. […] The standards for the PR and GR assays were unlabeled progesterone and dexamethasone, respectively.

[6] = test system: women with uterine fibroids; assay: Three month study in women with uterine fibroids; format: in vivo, human; settings: 12.5 mg or 25 mg daily for three months, begun at day 5 of cycle
Protocol: In a separate study, women with uterine fibroids were administered daily doses of 12.5 mg, 25 mg or 50 mg CDB-4124 for a three month period, beginning at day 5 of each woman's menstrual cycle.

**Q.** For COCC(=O)[C@@]1(OC(C)=O)CC[C@H]2[C@@H]3CCC4=CC(=O)CCC4=C3[C@@H](c3ccc(N(C)C)cc3)C[C@@]21C [CDB-4124, 21-methoxy-17α-acetoxy-11β-(4 N,N-dimethylaminophenyl)-19-norpregna-4,9-diene-3,20-dione], which “antiprogestin activity in the rabbit uterus” value [1] is on record?
**A.** The value was “strong”.

**Q.** And the “affinity for / inhibition of the opiate μ receptor (MOP)” value (opiate μ receptor (MOP))?
**A.** Its value is “has affinity for and can inhibit”.

**Q.** And the “endometrial thickening, group begun at day 15 versus group begun at day 5” value [2]?
**A.** Its value is “lesser degree of endometrial thickening”.

**Q.** What about the “differences in serum corticosterone between treatment groups” value [3] of the same molecule?
**A.** Its value is “No differences”.

**Q.** And the “increase in endometrial thickness from baseline (ultrasound)” value ([4]; 12.5 mg dose, after six months, begun at day 5 of cycle, statistically significant (p 0.016))?
**A.** The value was 10.9 mm.

**Q.** What about the “change in endometrial thickness from baseline (ultrasound)” value ([4]; 25 mg dose, after six months, begun at day 5 of cycle) of the same molecule?
**A.** Its value is 9.8 mm.

**Q.** And the “change in endometrial thickness from baseline (ultrasound)” value ([4]; 50 mg dose, after six months, begun at day 5 of cycle)?
**A.** The value was 3.9 mm.

**Q.** And the “biomarkers of bone resorption” value ([4]; any of the dose arms of CDB-4124, three and six months of treatment)?
**A.** Its value is “no significant changes”.

**Q.** What about the “anti-glucocorticoid receptor activity / glucocorticoid receptor binding” value [5] of the same molecule?
**A.** Its value is “minimal”.

**Q.** And the mean endometrial thickness [6]?
**A.** Its mean endometrial thickness is “less than 20 mm”.

**Q.** What about the “subjects with a significant bleeding episode” value [6] of the same molecule?
**A.** Its value is “None”.
